Columns and labels:
[1] = system: S. aureus, MRSA, S. epidermidis and MRSE; assay: MIC, S. aureus, MRSA, S. epidermidis and MRSE; type: cell-based, Staphylococcus aureus, Staphylococcus epidermidis
Description: (§1) All compounds were tested against American Type Culture Collection (ATCC) reference strains as well as clinical isolates from the Canadian Intensive Care Unit (CAN-ICU) study (Zhanel, et al., 2008). […] Antibacterial activity against Gram-positive and Gram-negative microorganisms was performed via broth macrodilution tests using CLSI methodology (Clinical and Laboratory Standards Institute, 2006). The minimum inhibitory concentration (MIC) in μg/mL of the aminoglycoside-derived amphiphilic polycarbamates and polyethers were determined using established methods (Clinical and Laboratory Standards Institute, 2006) and are shown in Tables 1 and 2, respectively.

[2] = system: Stenotrophomonas maltophilia (CAN-ICU 62585); assay: MIC, broth macrodilution (CLSI), S. maltophilia; type: cell-based; conditions: for Minimal Inhibitory Concentration (MIC): S. maltophilia, footnote CAN-ICU 62584
Summary of the method: (§2)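 MICs (μg/mL) were determined by broth macrodilution following CLSI methods, using both reference strains from the American Type Culture Collection and clinical isolates collected in the Canadian Intensive Care Unit study.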

[3] = system: S. epidermidis ATCC 14990; assay: MIC, broth macrodilution (CLSI), S. epidermidis; type: cell-based, Staphylococcus epidermidis; conditions: footnote ATCC 1490
Summary of the method: as §2

[4] = system: methicillin-resistant Staphylococcus aureus (MRSA) ATCC 33592; assay: MIC, broth macrodilution (CLSI), MRSA ATCC 33592; type: cell-based; conditions: for Minimal Inhibitory Concentration (MIC): MRSA, methicillin-resistant S. aureus ATCC 33592
Summary of the method: as §2

S. aureus ATCC 29213 = assay: MIC, broth macrodilution (CLSI), S. aureus ATCC 29213; type: cell-based, Staphylococcus aureus
Summary of the method: as §2

[5] = system: Acinetobacter baumanni (CAN-ICU 63169); assay: MIC, broth macrodilution (CLSI), A. baumannii; type: cell-based; conditions: A. baumannii CAN-ICU 63169
Summary of the method: as §2

[6] = system: methicillin-resistant Staphylococcus epidermidis (MRSE) CAN-ICU 61589; assay: MIC, broth macrodilution (CLSI), MRSE; type: cell-based; conditions: methicillin-resistant S. epidermidis, footnote (ATCC 14990)
Summary of the method: as §2

[7] = system: E. coli (Gentamicin-resistant) CAN-ICU 61714; assay: MIC, broth macrodilution (CLSI), gentamicin-resistant E. coli; type: cell-based; conditions: footnote ATCC 6174 (gentamicin resistant)
Summary of the method: as §2

E. coli ATCC 25922 = assay: MIC, broth macrodilution (CLSI), E. coli ATCC 25922; type: cell-based
Summary of the method: as §2

three strains of E. coli = assay: MIC, three strains of E. coli; type: cell-based
Description: as §1

[8] = system: P. aeruginosa (Gent-R) CAN-ICU 62308; assay: MIC, broth macrodilution (CLSI), P. aeruginosa CAN-ICU 62308; type: cell-based, Pseudomonas aeruginosa
Summary of the method: as §2

[9] = system: Streptococcus pneumoniae ATCC 49619; assay: MIC, broth macrodilution (CLSI), S. pneumoniae ATCC 49619; type: cell-based
Summary of the method: as §2

[10] = system: E. coli (Amikacin MIC 32) CAN-ICU 63074; assay: MIC, broth macrodilution (CLSI), E. coli CAN-ICU 63074; type: cell-based
Summary of the method: as §2

[11] = system: Pseudomonas aeruginosa ATCC 27853; assay: MIC, broth macrodilution (CLSI), P. aeruginosa ATCC 27853; type: cell-based
Summary of the method: as §2

S. pneumoniae ATCC 13883 = assay: MIC, broth macrodilution (CLSI), S. pneumoniae ATCC 13883; type: cell-based
Summary of the method: as §2

Gram-negative strains = assay: Gram-negative antibacterial activity; type: cell-based; conditions: Gram-negatives E. coli and S. maltophilia
Description: as §1

[12] = system: P. aeruginosa (two strains); assay: MIC, P. aeruginosa two strains; type: cell-based, Pseudomonas aeruginosa
Description: as §1

| Structure (SMILES) | MIC [1] [µg/mL] | Minimal Inhibitory Concentration (MIC) [2] [µg/mL] | Minimal Inhibitory Concentration (MIC) [3] [µg/mL] | Minimal Inhibitory Concentration (MIC) [4] [µg/mL] | Minimal Inhibitory Concentration (MIC) (S. aureus ATCC 29213) [µg/mL] | Minimal Inhibitory Concentration (MIC) [5] [µg/mL] | Minimal Inhibitory Concentration (MIC) [6] [µg/mL] | Minimal Inhibitory Concentration (MIC) [7] [µg/mL] | Minimal Inhibitory Concentration (MIC) (E. coli ATCC 25922) [µg/mL] | Minimal Inhibitory Concentration (MIC) [8] [µg/mL] | Minimal Inhibitory Concentration (MIC) [9] [µg/mL] | Minimal Inhibitory Concentration (MIC) [10] [µg/mL] | Minimal Inhibitory Concentration (MIC) [11] [µg/mL] | Minimal Inhibitory Concentration (MIC) (S. pneumoniae ATCC 13883) [µg/mL] | other results |
| --- | --- | --- | --- | --- | --- | --- | --- | --- | --- | --- | --- | --- | --- | --- | --- |
| NCC1OC(OC2C(N)CC(N)C(OC(=O)Nc3ccccc3)C2OC2OC(COC(=O)Nc3ccccc3)C(OC3OC(CN)C(OC(=O)Nc4ccccc4)C(OC(=O)Nc4ccccc4)C3N)C2OC(=O)Nc2ccccc2)C(N)C(OC(=O)Nc2ccccc2)C1OC(=O)Nc1ccccc1.O=C(O)C(F)(F)F.O=C(O)C(F)(F)F.O=C(O)C(F)(F)F.O=C(O)C(F)(F)F.O=C(O)C(F)(F)F.O=C(O)C(F)(F)F (stereo not shown) [Compound 1] | ≤ 1 | 4 | 0.5 | 1 | 1 | 32 | 0.5 | 16 | 32 | 128 | 16 | 16 | 256 | 256 | MIC fold lower compared to amphiphilic di- and tetracationic lipopeptides (Serrano et al., 2009) ([2]; against S. maltophilia): 32-64 fold; fold increased susceptibility over Neomycin B ([2]; against multidrug-resistant S. maltophilia): over 128 fold; fold enhancement compared to unmodified Neomycin B ([4]; against MRSA): 256 fold; MIC fold reduced compared to Neomycin B sulfate (three strains of E. coli; Neomycin B susceptible E. coli): 2-8 fold; MIC (three strains of E. coli; three strains of E. coli): 16 to 32 µg/mL |
| CCCCCCNC(=O)OCC1OC(OC2C(NC(=O)C(CCN)OC(=O)NCCCCCC)CC(N)C(OC3OC(CN)C(OC(=O)NCCCCCC)C(OC(=O)NCCCCCC)C3OC(=O)NCCCCCC)C2OC(=O)NCCCCCC)C(OC(=O)NCCCCCC)C(N)C1OC(=O)NCCCCCC.O=C(O)C(F)(F)F.O=C(O)C(F)(F)F.O=C(O)C(F)(F)F.O=C(O)C(F)(F)F (stereo not shown) [Compound 9] | – | 16 | 4 | 4 | 4 | >128 | 4 | 8 | 4 | 16 | 32 | 4 | 64 | >128 | fold improvement compared to 6 (Gram-negative strains): 8-32 fold |
| NCC1OC(OC2C(N)CC(N)C(OCc3ccccc3)C2OC2OC(COCc3ccccc3)C(OC3OC(CN)C(OCc4ccccc4)C(OCc4ccccc4)C3N)C2OCc2ccccc2)C(N)C(OCc2ccccc2)C1OCc1ccccc1.O=C(O)C(F)(F)F.O=C(O)C(F)(F)F.O=C(O)C(F)(F)F.O=C(O)C(F)(F)F.O=C(O)C(F)(F)F.O=C(O)C(F)(F)F (stereo not shown) [Compound 11] | 2 to 4 | 8 | 2 | 4 | 4 | 16 | 2 | 16 | 8 | 64 | 16 | 4 | 32 | 8 | fold decrease in activity compared to polycarbamate analog 1 ([2]; against S. maltophilia): 2 fold; MIC [12]: 32 to 64 µg/mL |

Source: US8999942B2, “Polyol modified aminoglycoside-lipid conjugates” (University of Manitoba, priority 2010, dated 2015)
